Here are results for 3 molecules from patent publication US8632612B2, “Compositions for dyeing keratin fibers” (Segetis, Inc., priority 2010, dated 2014).

The nature of series [1]: Dissolution of hair dye moieties in neat ketal solvents and storage at room temperature (Example 7). Format: physicochemical. An excerpt: The respective hair dye compositions and their methods of manufacturing are discussed in detail below.
A short description of series [2]: Saturated solubility of oxidation dye intermediates in hair dye formulations (UV-Vis against calibration curve). As to conditions: 10 minutes stirring, three replications.

Bounds are passed on as bounds.

Consider `Oc1cccc(O)c1` [Resorcinol], for which the dissolution in ketal entry in series [1] (10% solids in Bu-LGK at 80° C. with agitation), in series [1] (10% solids in Et-LGK at 80° C. with agitation) and in series [1] (10% solids in Et-LPK at room temperature with agitation) was “dissolved” in each case.
Take `Nc1cccc(O)c1` [m-Aminophenol]: the dissolution in ketal result in series [1] (5% solids in Et-LGK at room temperature) and in series [1] (5% solids in Et-LPK at 80° C.) was “dissolved” each time.
Take `Nc1ccc(N)cc1` [p-phenylenediamine]: the dissolution in ketal result in series [1] (1% solids in Et-LPK at 80° C.) is “did not completely dissolve”; in series [1] (5% solids in Bu-LGK at 80° C.), “dissolved”; in series [1] (5% solids in Et-LGK at 80° C.), “dissolved”; in series [1] (5% solids in Et-LPK at 80° C.) it was “did not completely dissolve”; in series [1] (25% solids in Bu-LGK at 80° C.), “partially dissolved”. Also, the solubility after storage entry in series [1] (5% and 1% solids in Et-LPK, storage at room temperature) is recorded as “a precipitant remained”; in series [1] (5% solids in Et-LGK (dissolved at 80° C.), 24 hours of storage at room temperature) it was “still soluble”. In addition, the “Average Solubility” value in series [2] (in formulation 5A (7% Et-LGK), pH 10.2, 27° C.) is listed as 0.07 % wt./wt; in series [2] (in formulation 5B (7% Et-LGK), pH 8.5, 27° C.) it was 0.07 % wt./wt; in series [2] (in formulation 6A (7% Et-LPK), pH 10.2, 27° C.) it was 0 % wt./wt; in series [2] (in formulation 6B (7% Et-LPK), pH 8.5, 27° C.), under 0.01 % wt./wt.
